From patent publication US20260200903A1, “PHARMACEUTICAL COMPOSITION FOR AMELIORATING MALIGNANT DISEASES” (KINKI UNIVERSITY, priority 2020, published 2026)

How the values were obtained:
[1] = system: ATN-1 cells (adult T cell leukemia cell line); assay: Cell death inducing effect on ATN-1 cells, trypan blue staining; assay type: cell-based; conditions: ATN-1 (ATL), cell viability
Experimental: (§1) ATN-1 cells (adult T cell leukemia cell line) were cultured under 5% CO2 at 37° C. The culture medium used RPMI-1640 medium with 100 μg/mL penicillin, 100 U/mL streptomycin and fetal bovine serum. ATN-1 cells were seeded into 96-well plates and incubated with each concentration of the compounds was added, and cell viability was determined by the trypan blue staining.
(§2) For controls, only 0.5% DMSO (diluted in PBS) used to dissolve the compounds was added. For each concentration, the codes “5, 6, 7, 8, 9, 10, 11, 12” and arrows are shown from left to right. The sign “5” is the M9 (formula (5)) administration group, the sign “6” is the M11 (formula (6)) administration group, the sign “7” is the M12 (formula (7)) administration group, the sign “8” is the M14 (formula (8)) administration group, the sign “9” is the M15 (formula (9)) administration group, the sign “10” is the M16 (formula (10)) administration group, the sign “11” is the M18 (formula (11)) administration group, the sign “12” is the M19 (formula (12)) administration group, respectively. The IC50 values for each compound is also listed in the upper right corner of the figure.

CD20 = CD20 expression in L363 cells, flow cytometry; assay type: cell-based; conditions: 10 days, concentration lower than the IC50 (0.005-50 μM), compared to the positive control
Experimental: As a control, compounds untreated L363 cells were seeded in 75 cm^2 flasks and incubated for 10 days at 37° C. and 5% CO2. L363 cells were seeded into 75 cm^2 flasks and pre-cultured for 4 h. After incubation, L363 cells were treated with 0.1 μM M7, 0.05 μM M9, 0.1 μM yk-7, 0.1 μM yk-8-3, 50 μM yk-8-1, 0.1 μM M11, 0.01 μM M12, 0.005 μM M14, 0.005 μM M15, 0.005 μM M16, 1 μM M18, and 1 μM M19 at final concentrations, and incubated for 10 days at 37° C. and 5% CO2. This added amount is a concentration lower than the IC50 of the above compounds for L363 cells. After 10 days of incubation, cells were stained with anti-CD20 antibody, a B cell marker, and CD20 expression was measured using BD LSRFortessa. CCRF-SB cells were used as CD20-positive controls.
Results are shown in FIG. 29, FIG. 30, FIG. 31, and FIG. 32. The horizontal axis represents the expression level of CD20 and the vertical axis represents the number of cells.

[2] = system: MEC-1 cells (chronic lymphocytic leukemia cell line); assay: Cell death inducing effect on MEC-1 cells, trypan blue staining; assay type: cell-based; conditions: MEC-1 (CLL), cell viability
Experimental: as §1, with “MEC-1” for “ATN-1”, “(chronic lymphocytic” for “(adult T cell”
as §2

[3] = system: HUT-78 cells (peripheral T lymphoma cell line); assay: Cell death inducing effect on HUT-78 cells, trypan blue staining; assay type: cell-based; conditions: HUT-78 (peripheral T-cell lymphoma), cell viability
Experimental: HUT-78 cells (peripheral T lymphoma cell line) were cultured under 5% CO2 at 37° C.
The culture medium used RPMI-1640 medium with 100 μg/mL penicillin, 100 U/mL streptomycin and fetal bovine serum. HUT-78 cells were seeded into 96-well plates and incubated with each concentration of the compounds was added, and cell viability was determined by the trypan blue staining.
as §2

[4] = system: immunoglobulin free λ light chain; assay: Immunoglobulin free λ light chain secretion in KMS-28BM cells, ELISA; assay type: cell-based, human; conditions: KMS-28BM culture supernatant after 10 days, control 48 μg/L
Experimental: The inhibitory effect of each compound on immunoglobulin free λ light chain secretion was examined by enzyme-linked immunosorbent assay (ELISA) using KMS-28BM cells.
As a control, compounds untreated KMS-28BM cells were seeded in 75 cm^2 flasks and incubated for 10 days at 37° C. and 5% CO2. KMS-28BM cells were seeded into 75 cm^2 flasks and pre-cultured for 4 h. After incubation, KMS-28BM cells were treated with […], 0.05 μM M9, 0.1 μM yk-7, 0.1 μM yk-8-3, 50 μM yk-8-1, 0.5 μM M11, […], 0.005 μM M14, 0.005 μM M15, 0.005 μM M16, 0.5 μM M18, and 0.5 μM M19 at final concentrations, and incubated for 10 days at 37° C. and 5% CO2. After 10 days of incubation, the culture supernatant was collected and immunoglobulin free λ light chain secretion was measured by ELISA. This measurement was performed using a human anti-λchain antibody ELISA kit (Funakoshi).

[5] = system: immunoglobulin free λ light chain; assay: Immunoglobulin free λ light chain secretion in L363 cells, ELISA; assay type: cell-based, human; conditions: L363 culture supernatant after 10 days, control 145 μg/L
Experimental: The inhibitory effect of each compound on immunoglobulin free λ light chain secretion was examined by enzyme-linked immunosorbent assay (ELISA) using L363 cells.
As a control, compounds untreated L363 cells were seeded in 75 cm^2 flasks and incubated for 10 days at 37° C. and 5% CO2. L363 cells were seeded into 75 cm^2 flasks and pre-cultured for 4 h. After incubation, L363 cells were treated with 0.1 μM M7, 0.05 μM M9, 0.1 μM yk-7, 0.1 μM yk-8-3, 50 μM yk-8-1, 0.1 μM M11, 0.01 μM M12, 0.005 μM M14, 0.005 μM M15, 0.005 μM M16, 1 μM M18, and 1 μM M19 at final concentrations, and incubated for 10 days at 37° C. and 5% CO2. After 10 days of incubation, the culture supernatant was collected and immunoglobulin free λ light chain secretion was measured by ELISA. This measurement was performed using a human anti-λ chain antibody ELISA kit (Funakoshi).

Structure (SMILES) | IC50 ([1]; Homo sapiens) [nM] | CD20 expression level (CD20) | IC50 ([2]; Homo sapiens, MEC1) [nM] | IC50 ([3]; Homo sapiens, HuT78) [nM] | further results
CCCC(=O)OC[C@H]1O[C@@H](c2c(O)cc3oc4cc(O)c(O)cc4c(=O)c3c2OC(=O)CCC)[C@H](OC(=O)CCC)[C@@H](OC(=O)CCC)[C@@H]1OC(=O)CCC [Compound M12, 1,2′,3′,4′,6-penta-O-butyrylmangiferin] | 15 | significantly increased | 12 | 21 | –
CCC(=O)OC[C@H]1O[C@@H](c2c(OC(=O)CC)cc3oc4cc(OC(=O)CC)c(OC(=O)CC)cc4c(=O)c3c2OC(=O)CC)[C@H](OC(=O)CC)[C@@H](OC(=O)CC)[C@@H]1OC(=O)CC [Compound M7, 1,3,2′,3′,4′,6,6′,7-octa-O-propionylmangiferin] | – | significantly increased | – | – | λ chain secretion ([4]; M7 group, unit printed g/L): 2.1e+06 µg/L; λ chain secretion ([5]; M7 group, unit printed g/L): 2.3e+07 µg/L
CCCC(=O)OC[C@H]1O[C@@H](c2c(OC(=O)CCC)cc3oc4cc(OC(=O)CCC)c(OC(=O)CCC)cc4c(=O)c3c2OC(=O)CCC)[C@H](OC(=O)CCC)[C@@H](OC(=O)CCC)[C@@H]1OC(=O)CCC [Compound M11, 1,3,2′,3′,4′,6,6′,7-octa-O-butyrylmangiferin] | – | significantly increased | – | – | IC50 [1]: 1850 nM; λ chain secretion ([4]; compounds at 0.005-50 μM): 1.1 µg/L; λ chain secretion ([5]; compounds at 0.005-50 μM): 11 µg/L; IC50 [2]: 575 nM; IC50 [3]: 905 nM
CCCCC(=O)OC[C@H]1O[C@@H](c2c(OC(=O)CCCC)cc3oc4cc(OC(=O)CCCC)c(OC(=O)CCCC)cc4c(=O)c3c2OC(=O)CCCC)[C@H](OC(=O)CCCC)[C@@H](OC(=O)CCCC)[C@@H]1OC(=O)CCCC [yk-8-1, 1,3,2′,3′,4′,6,6′,7-octa-O-valerylmangiferin] | – | significantly increased | – | – | λ chain secretion ([4]; compounds at 0.005-50 μM): 35 µg/L; λ chain secretion ([5]; compounds at 0.005-50 μM): 119 µg/L
CC(C)(C)C(=O)OC[C@H]1O[C@@H](c2c(O)cc3oc4cc(O)c(O)cc4c(=O)c3c2O)[C@H](OC(=O)C(C)(C)C)[C@@H](OC(=O)C(C)(C)C)[C@@H]1OC(=O)C(C)(C)C [Compound M15, 2′,3′,4′,6′-tetra-O-pivaloylmangiferin] | 11 | significantly increased | 9 | 22 | –
O=c1c2cc(O)c(O)cc2oc2cc(O)cc(OCCO)c12 [Compound M18, 3,6,7-trihydroxy-1-(2-hydroxyethoxy)-9H-xanthen-9-one] | 2890 | significantly increased | 3120 | 4540 | –
CCCC(=O)OC[C@H]1O[C@@H](c2c(O)cc3oc4cc(O)c(O)cc4c(=O)c3c2O)[C@H](OC(=O)CCC)[C@@H](OC(=O)CCC)[C@@H]1OC(=O)CCC [Compound M14, 2′,3′,4′,6′-tetra-O-butyrylmangiferin] | 8 | significantly increased | 8 | 8 | –
C=CCOc1cc(O)cc2oc3cc(O)c(O)cc3c(=O)c12 [Compound M19, 1-allyloxy-3,6,7-trihydroxy-9H-xanthen-9-one] | 4520 | significantly increased | 6890 | 6740 | –
CCCCO[C@@H]1[C@@H](OCCCC)[C@H](c2c(O)cc3oc4cc(O)c(O)cc4c(=O)c3c2O)O[C@H](COC(=O)CCC)[C@H]1OC(=O)CCC [Compound M16, 2′,3′-di-O-butyl-4′,6′-di-O-butyrylmangiferin] | 7 | significantly increased | 7 | 9 | –
CCCCC(=O)OC[C@H]1O[C@@H](c2c(O)cc3oc4cc(O)c(O)cc4c(=O)c3c2O)[C@H](OC(=O)CCCC)[C@@H](OC(=O)CCCC)[C@@H]1OC(=O)CCCC [yk-7, 2′,3′,4′,6′-tetra-O-valerylmangiferin] | – | significantly increased | – | – | –
CCC(=O)OC[C@H]1O[C@@H](c2c(O)cc3oc4cc(O)c(O)cc4c(=O)c3c2O)[C@H](OC(=O)CC)[C@@H](OC(=O)CC)[C@@H]1OC(=O)CC [Compound M9, 2′,3′,4′,6′-tetra-O-propionylmangiferin] | 589 | significantly increased | 454 | 925 | –
CCCCC(=O)OC[C@H]1O[C@@H](c2c(O)cc3oc4cc(O)c(O)cc4c(=O)c3c2OC(=O)CCCC)[C@H](OC(=O)CCCC)[C@@H](OC(=O)CCCC)[C@@H]1OC(=O)CCCC [yk-8-3, 1,2′,3′,4′,6-penta-O-valerylmangiferin] | – | significantly increased | – | – | –
